{"source": "PubChem BioAssay AID488770", "about": "(The Scripps Research Institute Molecular Screening Center, 2010)", "note": "The source made the active and inactive calls.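 Rule for the calls: active = IC50 at or below 10 µM; inactive = IC50 above 10 µM.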"}
{"biological_target": "KH domain-containing RNA-binding protein QKI (Mus musculus) (UniProt Q9QYS9)", "sequence (Q9QYS9 whole entry, looked up, the tested form may be a part)": "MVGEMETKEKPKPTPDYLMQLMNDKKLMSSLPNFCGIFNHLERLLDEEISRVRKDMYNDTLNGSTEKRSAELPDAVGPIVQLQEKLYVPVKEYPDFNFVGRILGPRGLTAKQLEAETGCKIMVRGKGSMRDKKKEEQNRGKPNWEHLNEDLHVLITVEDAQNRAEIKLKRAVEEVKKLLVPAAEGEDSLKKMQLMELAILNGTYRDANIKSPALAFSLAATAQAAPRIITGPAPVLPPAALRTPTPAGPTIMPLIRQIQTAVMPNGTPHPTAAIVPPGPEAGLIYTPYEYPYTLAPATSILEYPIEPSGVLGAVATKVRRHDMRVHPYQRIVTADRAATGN", "experiment": "inhibitors of QKI-RNA binding, dose response, gld-1 inhibitor project, biochemical, fluorescence polarization, mouse QKI, powder samples (AID 488770)", "conditions": "1536-well"}
{"compound": "Nc1c(O)ccc2c1C(=O)c1ccccc1C2=O", "IC50": "2530 nM"}
{"compound": "O=C1C2=C(SCCS2)C(=O)N1CCCO", "IC50": "2240 nM"}
{"compound": "Cc1ccc(S(=O)(=O)Nc2cc3c(C(=O)Nc4ccccc4)c(C)oc3c3ccccc23)c(C)c1", "IC50": "419 nM"}
{"compound": "CCOC(=O)c1c(C)oc2c1cc(NS(=O)(=O)c1ccc(C)cc1)c1ccccc12", "IC50": "> 59600 nM (inactive)"}
{"compound": "CCN(CC)S(=O)(=O)c1ccc(N2CCCC2)c(NS(=O)(=O)c2ccc(F)cc2)c1", "IC50": "1620 nM"}
{"compound": "Nc1ccc2nonc2c1[N+](=O)[O-]", "IC50": "> 59600 nM (inactive)"}
{"compound": "O=C(CN1C(=O)NC2(CCCCC2)C1=O)Oc1ccc2c(C(F)(F)F)cc(=O)oc2c1", "IC50": "2130 nM"}
{"compound": "COc1ccc(C=Nc2c(-c3ccco3)nc3ccccn23)cc1OC", "IC50": "inactive"}
{"compound": "Nc1ccc(O)c2c1C(=O)c1ccccc1C2=O", "IC50": "2280 nM"}
{"compound": "CCCCn1c(=O)[nH]c2nc3cc(NC(C)=O)ccc3nc2c1=O", "IC50": "1590 nM"}
{"compound": "COc1ccc(/C=C(\\CC(=O)O)c2nc3ccccc3s2)cc1O", "IC50": "155 nM"}
{"compound": "O=c1[nH]c(=O)c2nc3ccccc3nc2[nH]1", "IC50": "inactive"}
{"compound": "Cc1ccc(S(=O)(=O)Nc2cc3c(C(=O)Nc4ccccc4)c(C)oc3c3ccccc23)cc1", "IC50": "262 nM"}
{"compound": "CC1=CC(=O)c2c(O)ccc(O)c2C1=O", "IC50": "5620 nM"}
{"compound": "O=c1[nH]c2cc3ccccc3cc2nc1C(F)(F)F", "IC50": "1170 nM"}
